# Tests used:
# Type in all cases: cell-based
# [1] = system: HT-29 cells expressing IκB super-repressor; experiment: Readhesion survival of cells transduced with adenovirus IκB super-repressor (crystal violet); settings: subapoptotic concentrations, readhesion 8 h
# Procedure: (§1) The percentage of apoptotic cells was determined using the annexin V assay. The data points represent the averages of three experiments; bars, ±SE. E. DLD-1 and F. HT-29 cells were transduced with an adenovirus containing the IκB super-repressor construct. After 3 days, the cells were transiently suspended and allowed to readhere in the presence of subapoptotic concentrations of BAY 11-7085 or DMSO (vehicle) for 8 h. The data are expressed as fractions of cells surviving compared with the controls (no adenovirus) and were quantitatively determined by staining the remaining adherent cells with crystal violet.
# (§2) DLD-1 and HT-29 cells that were approximately 60-70% confluent were transduced with Ad-IκB super-repressor by adding 1-50 μl of purified virus to the cells. […] In a parallel experiment, the transduced cells were resuspended and allowed to readhere in BAY 11-7085 for 8 h. The percentage of surviving (nonapoptotic) cells was determined using crystal violet staining.
# (§3) The specific involvement of NF-κB in the apoptotic mechanism of BAY 11-7085 was examined specifically. […] The transduced DLD-1 and HT-29 cells were then transiently suspended and allowed to readhere at concentrations of BAY 11-7085 below the in vitro apoptotic threshold (>20 μM) for these cell lines. […] Therefore, inhibition of NF-κB is important to the apoptotic effect of BAY 11-7085 during colon cancer cell readhesion.
# [2] = system: DLD-1 cells expressing IκB super-repressor; experiment: as above; settings: subapoptotic concentrations, readhesion 8 h
# Procedure: as §1, §2, §3
# c-IAP-1 = experiment: Immunoblot of anti-apoptotic proteins in HT-29 cells; settings: transiently suspended or adherent HT-29; 20 μM; 8 hours
# Procedure: (§4) The data points represent the means of triplicate experiments and the error bars the standard errors of the means. […] The percent of apoptotic cells was then determined by the annexin V assay. […] The results shown are typical of two separate experiments. […] Immunoblots were performed for c-IAP-2, TRAF-1, TRAF-2, and FLIP. All lanes contain equal total protein.
# (§5) The cells were washed twice in ice cold PBS and then lysed in 4° C. lysis buffer (50 mM HEPES, 150 mM NaCl, 1.5 mM MgCl2, 1 mM EGTA, 100 mM NaF, 10 mM Na2PO4, 1 mM Na3VO4, 10% glycerol, 1% Triton X-100, and 1 μg/ml each of aprotinin, leupeptin, chymostatin, pepstatin) and clarified at 12,000 rpm at 4° C. for 15 minutes. The lysates were normalized for total protein concentration. Aliquots of the lysates were then mixed 1:1 in sample buffer (125 mM Tris-HCl (pH 6.8), 20% glycerol. 4% sodium dodecyl sulfate, 2% beta-mercaptoethanol, 10 μg/ml bromophenol blue) and boiled for 3 minutes. The samples were loaded onto SDS-PAGE gels (7.5 or 10% acrylamide). The proteins were transferred to nitrocellulose from the gels, then incubated in blocking buffer (1% bovine serum albumin (Bio-Rad), 100 mM Tris-Cl (pH7.4), 0.9% NaCl, 0.1% Nonidet) overnight at 4° C.
# (§6) For immunodetection, the blocked blots were probed with primary antibody for 2 hours at 4° C. on a rocker. The blots were washed twice for 10 minutes each in blocking buffer, then incubated with a 1:2000 dilution of a rabbit-anti-mouse secondary antibody (for monoclonal primary antibodies; for polyclonal antibodies, this step was skipped). After two washes in blocking buffer (150 mM NaCl, 20 mM Tris pH 7.4, 0.5% Tween 20, 5% bovine serum albumin, and 0.2 gm/500 ml final concentration of sodium azide), the blots were finally incubated with a 1:2000 dilution of alkaline phosphatase-conjugated rabbit-anti-mouse antibodies (Jackson) in blocking buffer. Alkaline phosphatase was detected by a colorimetric reaction using a BCIP (5-Bromo-4-Chloro-3-Indolyl phosphate)/NBT (Nitroblue tetrazolium) kit (Zymed).
# TRAF-1 = experiment: as above; settings: 20 μM, 8 hours
# Procedure: as §4, §5, §6
# TRAF-2 = experiment: as above; settings: 20 μM, 8 hours
# Procedure: as §4, §5, §6
# [3] = system: FLIP (54 kilodalton long isoform); experiment: as above; settings: adherent HT-29; 20 μM
# Procedure: as §4, §5, §6
smiles,measurement,setting,value
"CC(C)(C)c1ccc(S(=O)(=O)/C=C/C#N)cc1 [BAY 11-7085, (2E)-3-[4-(tertiarybutylphenyl)sulfonyl]-2-propenenitrile]",apoptotic threshold with IκB super-repressor expression compared with controls,[1],significantly lowered the apoptotic threshold
same,apoptotic threshold with IκB super-repressor expression compared with controls,[2],significantly lowered the apoptotic threshold
same,c-IAP-1 protein expression,c-IAP-1,No decrease in c-IAP-1 protein expression
same,TRAF-1 protein expression,TRAF-1,decrease in the protein expression
same,TRAF-2 protein expression,TRAF-2,decrease in the protein expression
same,expression of the 54 kilodalton (long) isoform of FLIP,[3],only a slight diminution

# — patent US7989495B2, “Compositions and methods for inhibiting NF-κB mediated tumorigenicity and adhesion dependent survival of cancer cells” (University of Utah Research Foundation, priority 2002, dated 2011)
